In patent publication US9181197B2 (priority 2008, dated 2015):
Where “and” joins values, the source holds several entries; their conditions need not be identical. Equal entries are not always repeated. Entries after “also recorded” stand apart in the source; their conditions may differ. Where two headings read alike, the source gives them in different places.

How the values were obtained:
rats [1] = assay: loss of righting reflex (LORR) in rats after IV bolus; assay type: in vivo; conditions: for ED50: Rattus norvegicus; for ED50 / slope of duration of LORR versus logarithm of anesthetic dose: rats, IV bolus; for anesthetic toxicity in rats: highest doses
Procedure: Rats were briefly restrained in a 3 inch diameter, 9 inch long acrylic chamber with a tail exit port. The desired dose of anesthetic was injected through a lateral tail vein catheter followed by an approximately 1 ml normal saline flush. Immediately after injection, rats were removed from the restraint device and turned supine. […] A stop-watch was used to measure the duration of LORR, which was defined as the time from drug injection until the animal spontaneously righted itself. The ED50 for LORR upon bolus anesthetic administration was determined from the anesthetic dose-dependence of LORR.

rats [2] = assay: heart rate and blood pressure in rats at equianesthetic doses; conditions: for increase in heart rate shortly after injection / duration of significant effect on mean blood pressure / maximum decrease in mean blood pressure relative to baseline: IV, twice ED50 for LORR; for maximum decrease in mean blood pressure relative to baseline: n=3
rats [3] = conditions: rat, in vivo, iv
animals = conditions: LD50/ED50; cited from earlier work
[4] = in-vitro metabolism in pooled human S9 liver fraction; conditions: for half-life at 10 μM: human, s9; for rate of metabolism relative to (R)-etomidate: liver enzymes, S9
[5] = target: T1, Human GABAA receptors composed of α1β2γ2L subunits (Homo sapiens, UniProt P14867+P47870); assay: two-microelectrode voltage clamp of GABAA receptor currents in Xenopus oocytes; assay type: cell-based; conditions: for enhancement of amplitudes of GABA-evoked currents: EC5-10 GABA, each anesthetic at its anesthetic EC50 (8 μM MOC-(R)-etomidate, 2 μM (R)-etomidate), n=6 oocytes; for direct activation of GABAA receptors: before application of GABA
T1 construct: expressed in transfected cells; host or cells: Xenopus laevis oocytes

Xenopus laevis tadpoles [6] = assay: tadpole loss of righting reflex assay
rats [7] = assay: ACTH1-24-stimulated serum corticosterone in rats (adrenocortical function); conditions: 30 min after equianesthetic dose
Xenopus laevis tadpoles [8] = conditions: Husain et al. 2003, read-out: EC50 / free-aqueous concentration inducing loss of righting reflexes in tadpoles; cited from earlier work
humans = conditions: Arden et al. 1986; cited from earlier work
patients = conditions: cited from earlier work

T1 sequence (P14867 28-456): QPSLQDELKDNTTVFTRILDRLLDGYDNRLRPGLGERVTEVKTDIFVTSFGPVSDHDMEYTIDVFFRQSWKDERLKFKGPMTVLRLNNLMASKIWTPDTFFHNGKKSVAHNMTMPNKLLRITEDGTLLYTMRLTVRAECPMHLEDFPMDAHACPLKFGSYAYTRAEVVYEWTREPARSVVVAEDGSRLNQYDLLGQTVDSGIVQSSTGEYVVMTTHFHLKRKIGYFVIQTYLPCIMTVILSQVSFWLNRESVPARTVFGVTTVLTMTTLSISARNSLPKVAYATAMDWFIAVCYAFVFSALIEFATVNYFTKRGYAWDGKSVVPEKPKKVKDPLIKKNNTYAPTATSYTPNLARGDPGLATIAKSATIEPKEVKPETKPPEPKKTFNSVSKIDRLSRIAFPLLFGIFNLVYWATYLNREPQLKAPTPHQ
T1 sequence (P47870 25-512 limits assumed): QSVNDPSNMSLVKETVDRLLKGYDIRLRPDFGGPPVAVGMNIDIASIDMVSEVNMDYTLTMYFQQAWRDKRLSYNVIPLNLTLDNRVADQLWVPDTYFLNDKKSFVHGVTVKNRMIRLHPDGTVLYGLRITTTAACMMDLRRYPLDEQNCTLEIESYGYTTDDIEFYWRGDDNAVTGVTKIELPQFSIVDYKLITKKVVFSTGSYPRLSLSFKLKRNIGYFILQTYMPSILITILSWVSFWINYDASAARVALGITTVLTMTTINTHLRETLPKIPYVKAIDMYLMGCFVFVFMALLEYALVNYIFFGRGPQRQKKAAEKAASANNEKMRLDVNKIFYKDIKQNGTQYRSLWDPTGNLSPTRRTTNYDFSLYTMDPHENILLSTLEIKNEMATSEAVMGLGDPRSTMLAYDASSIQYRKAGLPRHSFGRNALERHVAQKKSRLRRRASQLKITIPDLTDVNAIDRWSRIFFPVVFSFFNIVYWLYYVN
T1 sequence (P18507 40-475 partner): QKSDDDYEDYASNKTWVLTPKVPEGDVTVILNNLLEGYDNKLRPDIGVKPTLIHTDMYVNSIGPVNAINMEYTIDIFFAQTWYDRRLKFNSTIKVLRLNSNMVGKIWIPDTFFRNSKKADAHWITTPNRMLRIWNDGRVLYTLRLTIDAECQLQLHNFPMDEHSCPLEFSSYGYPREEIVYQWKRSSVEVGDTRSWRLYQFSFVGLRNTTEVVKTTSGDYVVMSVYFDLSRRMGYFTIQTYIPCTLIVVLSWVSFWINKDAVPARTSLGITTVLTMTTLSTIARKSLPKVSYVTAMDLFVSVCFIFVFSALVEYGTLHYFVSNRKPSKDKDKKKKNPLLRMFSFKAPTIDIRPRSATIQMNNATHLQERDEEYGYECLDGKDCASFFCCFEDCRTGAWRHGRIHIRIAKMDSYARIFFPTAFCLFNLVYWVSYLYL

CCOC(=O)c1cncn1[C@H](C)c1ccccc1 (stereo in doubt) [(R)-etomidate, ethyl 3-(1-phenylethyl)imidazole-4-carboxylate]
ED50 (rats [1]): 1 ± 0.03 mg/kg | anesthetic toxicity in rats (rats [1]): no obvious anesthetic toxicity | slope of duration of LORR versus logarithm of anesthetic dose (rats [1]): 27±7 | increase in heart rate shortly after injection (rats [2]): 49±67 BPM | duration of significant effect on mean blood pressure (rats [3]): 6.5 min | maximum decrease in mean blood pressure relative to baseline (rats [3]): −36±11 mmHg

CC(C)c1cccc(C(C)C)c1O [propofol]
ED50 (rats [1]): 4.1 ± 0.3 mg/kg | anesthetic toxicity in rats (rats [1]): no obvious anesthetic toxicity | slope of duration of LORR versus logarithm of anesthetic dose (rats [1]): 22±4 | duration of significant effect on mean blood pressure (rats [2]): 7 min | increase in heart rate shortly after injection (rats [2]): 64±56 BPM | maximum decrease in mean blood pressure relative to baseline (rats [2]): −51±19 mmHg | therapeutic index (animals): 3.1

O=C1CC2(CCCC2)CC(=O)N1CCCCN1CCN(c2ncccn2)CC1 [buspirone]
half-life at 10 μM [4]: 15.4 min

COC(=O)CCOC(=O)c1cncn1[C@H](C)c1ccccc1 [MOC-(R)-etomidate, (R)-3-Methoxy-3-oxopropyl1-(1-phenylethyl)-1H-imidazole-5-carboxylate]
ED50 (rats [1]): 5.2 ± 1 mg/kg | duration of LORR shorter versus propofol or (R)-etomidate (rats [1]; equianesthetic doses): ~10 fold | anesthetic toxicity in rats (rats [1]): no obvious anesthetic toxicity | slope of duration of LORR versus logarithm of anesthetic dose (rats [1]): 2.8±0.4 | anesthetic potency relative to (R)-etomidate's potency (rats [1]; two species (tadpoles, rats)): ¼^th-⅕^th | percent of original concentration remaining ([4]; by 40 min): < 1% | percent metabolized ([4]; by 40 min, +NADPH, 37° C.): more than 99% | concentration remaining ([4]; by 40 min, start 10 μM): < 100 nM | half-life at 10 μM [4]: 4.2 min | rate of metabolism relative to (R)-etomidate [4]: at least 100 fold | rate of metabolism relative to (R)-etomidate ([4]; listed as MOC-(R)-Etomidate): > 100 fold | enhancement of amplitudes of GABA-evoked currents [5]: 450±130% | direct activation of GABAA receptors [5]: evoked small currents | toxicity in tadpoles (Xenopus laevis tadpoles [6]; 0.1-128 μM, recovery in fresh oxygenated water): No evidence of toxicity was observed | EC50 (Xenopus laevis tadpoles [6]; Xenopus laevis, read-out: anesthetic EC50 (loss of righting reflexes)): 8 ± 2 µM | fraction of tadpoles anesthetized (Xenopus laevis tadpoles [6]; highest concentrations, 48-128 μM): all tadpoles were anesthetized | duration of significant effect on mean blood pressure (rats [2]): 0.5 min | increase in heart rate shortly after injection (rats [2]): 24±33 BPM | maximum decrease in mean blood pressure relative to baseline (rats [2]): −11±15 mmHg | duration of reduction in blood pressure (rats [2]; summary): 30 s | ACTH1-24-stimulated corticosterone concentration versus vehicle (rats [7]): not different from those that had received only vehicle; also recorded: no reduction; also recorded: unchanged versus control

CCCC(C)C1(CC)C(=O)NC(=S)NC1=O (stereo not shown) [thiopental]
therapeutic index (animals): 4.6

CCOC(=O)c1cncn1[C@H](C)c1ccccc1 [(R)-etomidate, ethyl 3-(1-phenylethyl)imidazole-4-carboxylate]
enhancement of amplitudes of GABA-evoked currents [5]: 660±240% | direct activation of GABAA receptors [5]: evoked small currents | EC50 (Xenopus laevis tadpoles [8]): ~2 µM and 2 µM | ACTH1-24-stimulated corticosterone concentration versus vehicle (rats [7]): significantly lower; also recorded: significantly reduced | free-aqueous concentration inducing loss of responsiveness (humans): ~2 µM | duration of adrenal suppression after single bolus induction dose (patients; critically ill patients): ≥ 24 h | persistence of adrenal insufficiency after discontinuing prolonged infusion (patients; doses producing general anesthesia): more than 4 days
